# Results as given in US20240132463A1, “SUBSTITUTED N-(2-(2,6-DIOXOPIPERIDIN-3-YL)-1,3-DIOXOISOINDOLIN-5-YL)ARYLSULFONAMIDE ANALOGS AS MODULATORS OF CEREBLON PROTEIN” (ST. JUDE CHILDREN'S RESEARCH HOSPITAL, INC., priority 2020, published 2024).
# Target: 6×His-CRBN-DDB1 protein (Homo sapiens (Human), UniProt Q96SW2)
# Assay: CRBN fluorescence polarization assay
# Assay type: binding
# Conditions: cereblon binding, class symbols; read-out: CRBN FP IC50
# Procedure: 6×His-CRBN-DDB1 protein (200 nM) and Cy5-O-Len probe (30 nM) were combined in 20 mM HEPES pH 7, 150 mM NaCl, 0.005% Tween-20 assay buffer. […] The plates were incubated in the dark for 1 hour at room temperature and then read on an Envision plate reader (PerkinElmer, Massachusetts, USA).
# Sequence of 6×His-CRBN-DDB1 protein (Q96SW2 whole entry): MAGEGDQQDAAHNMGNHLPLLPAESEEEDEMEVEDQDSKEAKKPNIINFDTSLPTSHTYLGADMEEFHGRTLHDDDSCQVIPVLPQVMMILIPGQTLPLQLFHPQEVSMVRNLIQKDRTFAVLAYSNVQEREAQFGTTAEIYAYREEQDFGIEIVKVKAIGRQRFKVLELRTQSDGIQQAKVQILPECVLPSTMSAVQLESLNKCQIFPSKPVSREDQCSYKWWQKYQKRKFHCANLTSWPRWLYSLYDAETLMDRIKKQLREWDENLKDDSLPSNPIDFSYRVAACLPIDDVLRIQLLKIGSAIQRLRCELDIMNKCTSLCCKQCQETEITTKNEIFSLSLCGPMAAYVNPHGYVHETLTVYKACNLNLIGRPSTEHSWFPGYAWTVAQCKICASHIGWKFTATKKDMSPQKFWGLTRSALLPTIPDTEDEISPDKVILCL
# Sequence of 6×His-CRBN-DDB1 protein (Q16531 whole entry partner): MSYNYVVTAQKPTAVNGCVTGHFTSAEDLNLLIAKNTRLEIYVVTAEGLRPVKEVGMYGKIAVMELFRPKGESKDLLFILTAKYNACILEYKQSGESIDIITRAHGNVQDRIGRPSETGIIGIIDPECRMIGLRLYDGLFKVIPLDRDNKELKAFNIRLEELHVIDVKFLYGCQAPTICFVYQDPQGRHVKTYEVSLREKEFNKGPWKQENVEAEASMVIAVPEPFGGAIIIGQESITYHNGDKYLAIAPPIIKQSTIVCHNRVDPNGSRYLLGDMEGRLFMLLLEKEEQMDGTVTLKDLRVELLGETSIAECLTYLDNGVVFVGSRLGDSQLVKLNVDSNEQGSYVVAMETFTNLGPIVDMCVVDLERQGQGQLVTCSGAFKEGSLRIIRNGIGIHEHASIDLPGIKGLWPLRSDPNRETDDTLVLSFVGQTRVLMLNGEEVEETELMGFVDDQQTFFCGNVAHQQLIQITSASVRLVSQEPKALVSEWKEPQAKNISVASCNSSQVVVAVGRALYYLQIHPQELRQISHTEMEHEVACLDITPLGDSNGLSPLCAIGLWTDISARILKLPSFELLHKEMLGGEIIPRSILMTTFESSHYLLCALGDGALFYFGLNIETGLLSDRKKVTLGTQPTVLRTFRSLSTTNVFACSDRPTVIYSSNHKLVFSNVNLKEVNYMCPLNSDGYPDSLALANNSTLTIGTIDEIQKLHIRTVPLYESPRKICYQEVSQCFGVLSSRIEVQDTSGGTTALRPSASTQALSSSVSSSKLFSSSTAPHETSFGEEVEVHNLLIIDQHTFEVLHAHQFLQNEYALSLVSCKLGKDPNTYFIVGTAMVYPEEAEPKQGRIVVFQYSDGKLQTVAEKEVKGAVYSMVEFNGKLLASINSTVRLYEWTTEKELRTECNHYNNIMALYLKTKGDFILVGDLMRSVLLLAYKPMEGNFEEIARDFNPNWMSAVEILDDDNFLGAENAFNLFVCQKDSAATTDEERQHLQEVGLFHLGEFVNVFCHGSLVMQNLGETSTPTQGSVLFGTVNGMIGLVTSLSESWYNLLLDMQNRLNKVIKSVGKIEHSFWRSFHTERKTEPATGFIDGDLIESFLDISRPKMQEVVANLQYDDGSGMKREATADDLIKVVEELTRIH
row,SMILES,IC50 [nM]
1,"O=C1CCC(N2Cc3ccc(NS(=O)(=O)c4cccc(OC(F)(F)F)c4)cc3C2=O)C(=O)N1 (centres unmarked) [Compound 27, N-(2-(2,6-dioxopiperidin-3-yl)-3-oxoisoindolin-5-yl)-3-(trifluoromethoxy)benzenesulfonamide]",< 1000
2,"O=C1CCC(N2Cc3cc(NS(=O)(=O)c4ccccc4C(F)(F)F)ccc3C2=O)C(=O)N1 (centres unmarked) [Compound 44, N-(2-(2,6-dioxopiperidin-3-yl)-1-oxoisoindolin-5-yl)-2-(trifluoromethyl)benzenesulfonamide]",< 1000
3,"Cc1cc(C)c(S(=O)(=O)Nc2ccc3c(c2)C(=O)N(C2CCC(=O)NC2=O)C3=O)c(C)c1 (centres unmarked) [Compound 68, N-(2-(2,6-dioxopiperidin-3-yl)-1,3-dioxoisoindolin-5-yl)-2,4,6-trimethylbenzenesulfonamide]",< 1000
4,"Cc1cccc(S(=O)(=O)Nc2ccc3c(c2)CN(C2CCC(=O)NC2=O)C3=O)c1 (centres unmarked) [Compound 45, N-(2-(2,6-dioxopiperidin-3-yl)-1-oxoisoindolin-5-yl)-3-methylbenzenesulfonamide]",< 1000
5,"O=C1CCC(N2Cc3cc(NS(=O)(=O)c4ccc(F)c(Cl)c4)ccc3C2=O)C(=O)N1 (centres unmarked) [Compound 49, 3-chloro-N-(2-(2,6-dioxopiperidin-3-yl)-1-oxoisoindolin-5-yl)-4-fluorobenzenesulfonamide]",< 1000
6,"O=C1CCC(N2Cc3cc(NS(=O)(=O)c4cccc(C(F)(F)F)c4)ccc3C2=O)C(=O)N1 (centres unmarked) [Compound 50, N-(2-(2,6-dioxopiperidin-3-yl)-1-oxoisoindolin-5-yl)-3-(trifluoromethyl)benzenesulfonamide]",< 1000
7,"COc1ccc(S(=O)(=O)Nc2ccc3c(c2)C(=O)N(C2CCC(=O)NC2=O)C3)cc1 (centres unmarked) [Compound 24, N-(2-(2,6-dioxopiperidin-3-yl)-3-oxoisoindolin-5-yl)-4-methoxybenzenesulfonamide]",1000 to 10000
8,"O=C1CCC(N2Cc3ccc(NS(=O)(=O)c4ccccc4OC(F)(F)F)cc3C2=O)C(=O)N1 (centres unmarked) [Compound 37, N-(2-(2,6-dioxopiperidin-3-yl)-3-oxoisoindolin-5-yl)-2-(trifluoromethoxy)benzenesulfonamide]",< 1000
9,"COc1cccc(S(=O)(=O)Nc2ccc3c(c2)CN(C2CCC(=O)NC2=O)C3=O)c1 (centres unmarked) [Compound 47, N-(2-(2,6-dioxopiperidin-3-yl)-1-oxoisoindolin-5-yl)-3-methoxybenzenesulfonamide]",< 1000
10,"O=C1CCC(N2C(=O)c3ccc(NS(=O)(=O)c4cc(F)c(Cl)cc4F)cc3C2=O)C(=O)N1 (centres unmarked) [Compound 66, 4-chloro-N-(2-(2,6-dioxopiperidin-3-yl)-1,3-dioxoisoindolin-5-yl)-2,5-difluorobenzenesulfonamide]",< 1000
11,"Cc1c(Cl)cccc1S(=O)(=O)Nc1ccc2c(c1)C(=O)N(C1CCC(=O)NC1=O)C2 (centres unmarked) [Compound 36, 3-chloro-N-(2-(2,6-dioxopiperidin-3-yl)-3-oxoisoindolin-5-yl)-2-methylbenzenesulfonamide]",< 1000
12,"O=C1CCC(N2Cc3ccc(NS(=O)(=O)c4ccc(F)cc4)cc3C2=O)C(=O)N1 (centres unmarked) [Compound 23, N-(2-(2,6-dioxopiperidin-3-yl)-3-oxoisoindolin-5-yl)-4-fluorobenzenesulfonamide]",< 1000
13,"O=C1CCC(N2Cc3cc(NS(=O)(=O)c4cccc(OC(F)(F)F)c4)ccc3C2=O)C(=O)N1 (centres unmarked) [Compound 43, N-(2-(2,6-dioxopiperidin-3-yl)-1-oxoisoindolin-5-yl)-3-(trifluoromethoxy)benzenesulfonamide]",< 1000
14,Cc1ccc(F)c(S(=O)(=O)Nc2ccc3c(c2)CN(C2CCC(=O)NC2=O)C3=O)c1 (centres unmarked) [Compound 53],< 1000
15,"O=C1CCC(N2Cc3cc(NS(=O)(=O)c4ccc(-c5ccccc5)cc4)ccc3C2=O)C(=O)N1 (centres unmarked) [Compound 51, N-(2-(2,6-dioxopiperidin-3-yl)-1-oxoisoindolin-5-yl)-[1,1′-bipheny]-4-sulfonamide]",< 1000
16,"COc1cccc(S(=O)(=O)Nc2ccc3c(c2)C(=O)N(C2CCC(=O)NC2=O)C3)c1 (centres unmarked) [Compound 29, N-(2-(2,6-dioxopiperidin-3-yl)-3-oxoisoindolin-5-yl)-3-methoxybenzenesulfonamide]",< 1000
17,"O=C1CCC(N2Cc3ccc(NS(=O)(=O)c4ccccc4)cc3C2=O)C(=O)N1 (centres unmarked) [Compound 22, N-(2-(2,6-dioxopiperidin-3-yl)-3-oxoisoindolin-5-yl)benzenesulfonamide]",< 1000
18,"CC(C)(C)c1ccc(S(=O)(=O)Nc2ccc3c(c2)CN(C2CCC(=O)NC2=O)C3=O)cc1 (centres unmarked) [Compound 46, 4-(tert-butyl)-N-(2-(2,6-dioxopiperidin-3-yl)-1-oxoisoindolin-5-yl)benzenesulfonamide]",< 1000
19,"Cc1ccccc1S(=O)(=O)Nc1ccc2c(c1)CN(C1CCC(=O)NC1=O)C2=O (centres unmarked) [Compound 54, N-(2-(2,6-dioxopiperidin-3-yl)-1-oxoisoindolin-5-yl)-2-methylbenzenesulfonamide]",< 1000
20,"O=C1CCC(N2Cc3ccc(NS(=O)(=O)c4cccc(C(F)(F)F)c4)cc3C2=O)C(=O)N1 (centres unmarked) [Compound 32, N-(2-(2,6-dioxopiperidin-3-yl)-3-oxoisoindolin-5-yl)-3-(trifluoromethyl)benzenesulfonamide]",< 1000
21,"Cc1ccc(F)c(S(=O)(=O)Nc2ccc3c(c2)C(=O)N(C2CCC(=O)NC2=O)C3)c1 (centres unmarked) [Compound 34, N-(2-(2,6-dioxopiperidin-3-yl)-3-oxoisoindolin-5-yl)-2-fluoro-5-methylbenzenesulfonamide]",< 1000
22,"O=C1CCC(N2Cc3cc(NS(=O)(=O)c4ccccc4OC(F)(F)F)ccc3C2=O)C(=O)N1 (centres unmarked) [Compound 56, N-(2-(2,6-dioxopiperidin-3-yl)-1-oxoisoindolin-5-yl)-2-(trifluoromethoxy)benzenesulfonamide]",< 1000
23,"Cc1ccccc1S(=O)(=O)Nc1ccc2c(c1)C(=O)N(C1CCC(=O)NC1=O)C2 (centres unmarked) [Compound 35, N-(2-(2,6-dioxopiperidin-3-yl)-3-oxoisoindolin-5-yl)-2-methylbenzenesulfonamide]",< 1000
24,"O=C1CCC(N2C(=O)c3ccc(NS(=O)(=O)Cc4ccc(Cl)cc4)cc3C2=O)C(=O)N1 (centres unmarked) [Compound 57, 1-(4-chlorophenyl)-N-(2-(2,6-dioxopiperidin-3-yl)-1,3-dioxoisoindolin-5-yi)methanesulfonamide]",< 1000
25,"O=C1CCC(N2Cc3cc(NS(=O)(=O)c4ccccc4)ccc3C2=O)C(=O)N1 (centres unmarked) [Compound 38, N-(2-(2,6-dioxopiperidin-3-yl)-1-oxoisoindolin-5-yl)benzenesulfonamide]",1000 to 10000
26,"O=C1CCC(N2Cc3ccc(NS(=O)(=O)c4ccc(C(F)(F)F)cc4)cc3C2=O)C(=O)N1 (centres unmarked) [Compound 26, N-(2-(2,6-dioxopiperidin-3-yl)-3-oxoisoindolin-5-yl)-4-(trifluoromethyl)benzenesulfonamide]",< 1000

# Other lines, results leading:
row,IC50 [nM],SMILES
1,< 1000,"COc1ccc(S(=O)(=O)Nc2ccc3c(c2)C(=O)N(C2CCC(=O)NC2=O)C3=O)cc1 (centres unmarked) [Compound 14, N-(2-(2,6-dioxopiperidin-3-yl)-1,3-dioxoisoindolin-5-yl)-4-methoxybenzenesulfonamide]"
2,< 1000,"O=C1CCC(N2C(=O)c3ccc(NS(=O)(=O)c4cc(Cl)cc(Cl)c4)cc3C2=O)C(=O)N1 (centres unmarked) [Compound 6, 3,5-dichloro-N-(2-(2,6-dioxopiperidin-3-yl)-1,3-dioxoisoindolin-5-yl)benzenesulfonamide]"
3,< 1000,"N#Cc1ccc(S(=O)(=O)Nc2ccc3c(c2)C(=O)N(C2CCC(=O)NC2=O)C3=O)cc1 (centres unmarked) [Compound 64, 4-cyano-N-(2-(2,6-dioxopiperidin-3-yl)-1,3-dioxoisoindolin-5-yl)benzenesulfonamide]"
4,< 1000,"CC(C)(C)c1ccc(S(=O)(=O)Nc2ccc3c(c2)C(=O)N(C2CCC(=O)NC2=O)C3=O)cc1 (centres unmarked) [Compound 3, 4-(tert-butyl)-N-(2-(2,6-dioxopiperidin-3-yl)-1,3-dioxoisoindolin-5-yl)benzenesulfonamide]"
5,< 1000,"O=C1CCC(N2C(=O)c3ccc(NS(=O)(=O)c4cccc(Cl)c4Cl)cc3C2=O)C(=O)N1 (centres unmarked) [Compound 88, 2,3-dichloro-N-(2-(2,6-dioxopiperidin-3-yl)-1,3-dioxoisoindolin-5-yl)benzenesulfonamide]"
6,< 1000,"O=C1CCC(N2C(=O)c3ccc(NS(=O)(=O)c4ccco4)cc3C2=O)C(=O)N1 (centres unmarked) [Compound 91, N-(2-(2,6-dioxopiperidin-3-yl)-1,3-dioxoisoindolin-5-yl)furan-2-sulfonamide]"
7,< 1000,"O=C1CCC(N2C(=O)c3ccc(NS(=O)(=O)c4ccccc4Br)cc3C2=O)C(=O)N1 (centres unmarked) [Compound 65, 2-bromo-N-(2-(2,6-dioxopiperidin-3-yl)-1,3-dioxoisoindolin-5-yl)benzenesulfonamide]"
8,1000 to 10000,"CCOc1ccccc1S(=O)(=O)Nc1ccc2c(c1)C(=O)N(C1CCC(=O)NC1=O)C2=O (centres unmarked) [Compound 79, N-(2-(2,6-dioxopiperidin-3-yl)-1,3-dioxoisoindolin-5-yl)-2-ethoxybenzenesulfonamide]"
9,< 1000,"O=C1CCC(N2C(=O)c3ccc(NS(=O)(=O)c4ccc(-c5ccccc5)cc4)cc3C2=O)C(=O)N1 (centres unmarked) [Compound 62, N-(2-(2,6-dioxopiperidin-3-yl)-1,3-dioxoisoindolin-5-yl)(1,1′-biphenyl]-4-sulfonamide]"
10,1000 to 10000,"O=C1CCC(N2C(=O)c3ccc(NS(=O)(=O)c4ccc(C5CCCCC5)cc4)cc3C2=O)C(=O)N1 (centres unmarked) [Compound 80, 4-cyclohexyl-N-(2-(2,6-dioxopiperidin-3-yl)-1,3-dioxoisoindolin-5-yl)benzenesulfonamide]"
11,< 1000,"O=C1CCC(N2C(=O)c3ccc(NS(=O)(=O)c4ccc5c(c4)OCCO5)cc3C2=O)C(=O)N1 (centres unmarked) [Compound 59, N-(2-(2,6-dioxopiperidin-3-yl)-1,3-dioxoisoindolin-5-yl)-2,3-dihydrobenzo[b][1,4]dioxine-6-sulfonamide]"
12,< 1000,"O=C1CCC(N2C(=O)c3ccc(NS(=O)(=O)c4ccc(F)c(F)c4)cc3C2=O)C(=O)N1 (centres unmarked) [Compound 11, N-(2-(2,6-dioxopiperidin-3-yl)-1,3-dioxoisoindolin-5-yl)-3,4-difluorobenzenesulfonamide]"
